Assay results from patent US20260356819A1, “OXOISOINDOLINYL-SUBSTITUTED […] DERIVATIVE AND USE THEREOF” (GLUETACS THERAPEUTICS (SHANGHAI) CO., LTD., priority 2023, published 2026).

What was measured:
Format in all cases: cell-based
Details in all cases: compounds at 50 nM and 500 nM
[1] = target: T1, IKZF1 (Homo sapiens, UniProt Q13422+Q96SW2); assay: Western blot degradation of IKZF1 in hPBMCs (24 h)
T1 construct: The supernatant was aspirated as the extracted total cell protein; endogenous in cells; host or cells: human peripheral blood mononuclear cells (hPBMCs)
How it was run: (§1)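 In this assay, each compound was incubated with human PBMCs for 24 h at 50 nM and 500 nM. Target levels were measured by Western blot densitometry normalised to an internal control.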

[2] = target: T2, CK1α (Homo sapiens, UniProt P48729+Q96SW2); assay: Western blot degradation of CK1α in hPBMCs (24 h)
T2 construct: The supernatant was aspirated as the extracted total cell protein; endogenous in cells; host or cells: human peripheral blood mononuclear cells (hPBMCs)
How it was run: as §1

[3] = target: T3, GSPT1 (Homo sapiens, UniProt P15170+Q96SW2); assay: Western blot degradation of GSPT1 in hPBMCs (24 h)
T3 construct: The supernatant was aspirated as the extracted total cell protein; endogenous in cells; host or cells: human peripheral blood mononuclear cells (hPBMCs)
How it was run: as §1

[4] = target: T4, WEE1 (Homo sapiens, UniProt P30291+Q96SW2); assay: Western blot degradation of WEE1 in hPBMCs (24 h)
T4 construct: The supernatant was aspirated as the extracted total cell protein; endogenous in cells; host or cells: human peripheral blood mononuclear cells (hPBMCs)
How it was run: as §1

[5] = target: T5, IKZF2 (Homo sapiens, UniProt Q96SW2+Q9UKS7); assay: Western blot degradation of IKZF2 in hPBMCs (24 h)
T5 construct: The supernatant was aspirated as the extracted total cell protein; endogenous in cells; host or cells: human peripheral blood mononuclear cells (hPBMCs)
How it was run: as §1

[6] = target: T6, IKZF3 (Homo sapiens, UniProt Q96SW2+Q9UKT9); assay: Western blot degradation of IKZF3 in hPBMCs (24 h)
T6 construct: The supernatant was aspirated as the extracted total cell protein; endogenous in cells; host or cells: human peripheral blood mononuclear cells (hPBMCs)
How it was run: as §1

T3 sequence (P15170 whole entry): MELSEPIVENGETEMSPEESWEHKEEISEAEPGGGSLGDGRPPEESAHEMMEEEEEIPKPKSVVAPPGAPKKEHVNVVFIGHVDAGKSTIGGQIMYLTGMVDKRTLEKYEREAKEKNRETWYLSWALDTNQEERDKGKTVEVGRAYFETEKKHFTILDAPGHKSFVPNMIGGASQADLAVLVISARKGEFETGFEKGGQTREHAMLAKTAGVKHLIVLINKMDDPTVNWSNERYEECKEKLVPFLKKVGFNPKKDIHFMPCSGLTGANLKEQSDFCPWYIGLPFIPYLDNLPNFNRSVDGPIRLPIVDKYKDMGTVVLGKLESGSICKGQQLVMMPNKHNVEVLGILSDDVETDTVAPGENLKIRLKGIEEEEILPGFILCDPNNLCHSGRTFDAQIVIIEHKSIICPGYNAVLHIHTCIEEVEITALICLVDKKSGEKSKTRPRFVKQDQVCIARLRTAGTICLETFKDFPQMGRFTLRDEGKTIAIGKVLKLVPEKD
T3 sequence (Q96SW2 whole entry): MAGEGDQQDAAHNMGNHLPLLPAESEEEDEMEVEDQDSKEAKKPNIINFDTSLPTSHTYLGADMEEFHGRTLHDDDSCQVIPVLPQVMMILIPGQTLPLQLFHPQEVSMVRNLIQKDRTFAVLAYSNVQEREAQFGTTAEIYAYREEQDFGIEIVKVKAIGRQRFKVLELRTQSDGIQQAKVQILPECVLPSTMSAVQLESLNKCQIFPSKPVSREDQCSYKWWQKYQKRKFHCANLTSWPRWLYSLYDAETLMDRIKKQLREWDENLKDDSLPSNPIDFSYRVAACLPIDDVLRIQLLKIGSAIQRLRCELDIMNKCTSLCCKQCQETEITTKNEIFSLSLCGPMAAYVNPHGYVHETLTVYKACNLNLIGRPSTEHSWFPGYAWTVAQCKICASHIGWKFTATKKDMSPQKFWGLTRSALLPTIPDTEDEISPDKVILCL
T3 sequence (Q16531 whole entry partner): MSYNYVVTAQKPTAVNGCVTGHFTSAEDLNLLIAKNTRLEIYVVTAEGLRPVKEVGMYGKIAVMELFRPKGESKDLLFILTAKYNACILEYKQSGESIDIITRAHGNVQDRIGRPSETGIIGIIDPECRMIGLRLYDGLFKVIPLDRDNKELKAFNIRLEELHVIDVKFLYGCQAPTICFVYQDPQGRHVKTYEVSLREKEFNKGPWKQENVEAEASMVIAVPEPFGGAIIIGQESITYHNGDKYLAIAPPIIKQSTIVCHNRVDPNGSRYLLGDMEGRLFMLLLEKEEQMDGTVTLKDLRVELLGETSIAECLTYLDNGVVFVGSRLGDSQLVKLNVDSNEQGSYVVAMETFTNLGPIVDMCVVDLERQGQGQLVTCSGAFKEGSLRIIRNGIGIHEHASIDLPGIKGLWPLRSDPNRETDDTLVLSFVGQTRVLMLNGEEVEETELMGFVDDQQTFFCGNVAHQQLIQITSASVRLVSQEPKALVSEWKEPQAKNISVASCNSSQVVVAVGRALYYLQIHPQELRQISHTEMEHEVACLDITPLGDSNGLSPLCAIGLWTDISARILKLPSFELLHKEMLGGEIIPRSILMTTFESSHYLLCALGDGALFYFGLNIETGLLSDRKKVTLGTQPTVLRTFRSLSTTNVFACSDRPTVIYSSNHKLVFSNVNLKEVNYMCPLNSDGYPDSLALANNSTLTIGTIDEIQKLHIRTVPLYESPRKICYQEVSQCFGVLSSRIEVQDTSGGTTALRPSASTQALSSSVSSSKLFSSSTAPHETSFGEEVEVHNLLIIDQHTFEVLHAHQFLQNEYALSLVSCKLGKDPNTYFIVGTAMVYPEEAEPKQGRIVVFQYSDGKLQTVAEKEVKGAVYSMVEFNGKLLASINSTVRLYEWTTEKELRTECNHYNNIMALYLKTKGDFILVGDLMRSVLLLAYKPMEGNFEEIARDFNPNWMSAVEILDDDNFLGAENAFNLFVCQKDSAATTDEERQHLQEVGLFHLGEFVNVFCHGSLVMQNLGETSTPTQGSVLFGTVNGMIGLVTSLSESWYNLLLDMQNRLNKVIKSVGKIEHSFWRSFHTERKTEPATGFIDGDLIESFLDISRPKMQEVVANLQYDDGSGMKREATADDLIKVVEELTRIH
T5 sequence (Q9UKS7 whole entry): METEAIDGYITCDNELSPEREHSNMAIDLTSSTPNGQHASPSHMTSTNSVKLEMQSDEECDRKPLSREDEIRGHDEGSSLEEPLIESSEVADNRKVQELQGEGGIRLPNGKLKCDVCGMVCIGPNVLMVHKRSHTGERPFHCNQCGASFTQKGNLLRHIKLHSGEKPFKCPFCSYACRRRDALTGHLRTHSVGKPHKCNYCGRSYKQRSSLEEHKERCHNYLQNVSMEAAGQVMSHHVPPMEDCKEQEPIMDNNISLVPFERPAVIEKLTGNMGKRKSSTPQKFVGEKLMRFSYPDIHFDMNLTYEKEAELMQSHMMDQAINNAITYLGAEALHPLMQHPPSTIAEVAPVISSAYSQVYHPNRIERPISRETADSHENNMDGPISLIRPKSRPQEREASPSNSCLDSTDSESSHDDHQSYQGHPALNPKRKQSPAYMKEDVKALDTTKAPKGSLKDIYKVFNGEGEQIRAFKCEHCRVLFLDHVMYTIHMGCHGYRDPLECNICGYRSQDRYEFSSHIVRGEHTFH
T5 sequence (Q96SW2 whole entry): as the sequence (Q96SW2 whole entry) above
T5 sequence (Q16531 whole entry partner): as the sequence (Q16531 whole entry partner) above
T2 sequence (P48729 whole entry): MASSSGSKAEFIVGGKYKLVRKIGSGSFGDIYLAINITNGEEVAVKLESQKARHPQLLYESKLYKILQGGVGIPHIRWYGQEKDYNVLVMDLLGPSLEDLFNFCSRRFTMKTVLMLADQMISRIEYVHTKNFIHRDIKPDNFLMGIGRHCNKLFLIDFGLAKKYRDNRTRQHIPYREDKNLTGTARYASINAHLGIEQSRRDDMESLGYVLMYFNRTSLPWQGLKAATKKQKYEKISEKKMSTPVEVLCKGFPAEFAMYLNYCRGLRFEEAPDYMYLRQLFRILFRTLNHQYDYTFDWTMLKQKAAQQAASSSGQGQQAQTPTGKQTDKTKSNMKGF
T2 sequence (Q96SW2 whole entry): as the sequence (Q96SW2 whole entry) above
T2 sequence (Q16531 whole entry partner): as the sequence (Q16531 whole entry partner) above
T6 sequence (Q9UKT9 whole entry): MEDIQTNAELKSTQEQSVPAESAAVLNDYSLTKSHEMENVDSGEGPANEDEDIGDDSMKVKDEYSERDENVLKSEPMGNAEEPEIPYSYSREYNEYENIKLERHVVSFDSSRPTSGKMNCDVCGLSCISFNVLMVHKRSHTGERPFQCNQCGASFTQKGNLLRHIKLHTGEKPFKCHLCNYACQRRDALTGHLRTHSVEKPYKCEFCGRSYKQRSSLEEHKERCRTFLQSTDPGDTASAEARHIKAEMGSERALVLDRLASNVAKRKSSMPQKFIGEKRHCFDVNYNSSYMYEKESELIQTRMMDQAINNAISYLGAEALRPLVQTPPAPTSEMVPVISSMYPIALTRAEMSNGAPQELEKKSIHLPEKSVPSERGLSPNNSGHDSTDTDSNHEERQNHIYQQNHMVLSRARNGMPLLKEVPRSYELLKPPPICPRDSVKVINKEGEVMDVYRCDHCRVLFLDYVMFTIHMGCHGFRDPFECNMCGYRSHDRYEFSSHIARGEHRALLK
T6 sequence (Q96SW2 whole entry): as the sequence (Q96SW2 whole entry) above
T6 sequence (Q16531 whole entry partner): as the sequence (Q16531 whole entry partner) above
T4 sequence (P30291 whole entry): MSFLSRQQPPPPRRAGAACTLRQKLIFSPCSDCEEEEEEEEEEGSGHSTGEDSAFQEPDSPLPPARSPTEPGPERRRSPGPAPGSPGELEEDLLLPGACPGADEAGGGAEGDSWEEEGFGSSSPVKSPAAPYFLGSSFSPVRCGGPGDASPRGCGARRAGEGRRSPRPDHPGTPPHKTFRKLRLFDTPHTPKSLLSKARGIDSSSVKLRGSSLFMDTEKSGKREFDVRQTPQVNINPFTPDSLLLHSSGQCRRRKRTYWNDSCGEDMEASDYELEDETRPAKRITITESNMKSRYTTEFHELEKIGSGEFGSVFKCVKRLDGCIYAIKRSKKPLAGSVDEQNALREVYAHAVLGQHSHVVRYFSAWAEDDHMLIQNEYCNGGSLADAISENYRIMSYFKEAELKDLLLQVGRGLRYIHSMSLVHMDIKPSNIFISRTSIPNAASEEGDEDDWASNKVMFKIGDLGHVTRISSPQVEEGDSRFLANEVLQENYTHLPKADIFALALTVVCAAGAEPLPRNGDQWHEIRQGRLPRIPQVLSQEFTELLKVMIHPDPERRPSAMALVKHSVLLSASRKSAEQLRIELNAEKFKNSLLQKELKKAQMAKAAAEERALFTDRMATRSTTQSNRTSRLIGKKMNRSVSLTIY
T4 sequence (Q96SW2 whole entry): as the sequence (Q96SW2 whole entry) above
T4 sequence (Q16531 whole entry partner): as the sequence (Q16531 whole entry partner) above

Compound	IKZF1 substrate protein remaining % [1]	CK1α substrate protein remaining % [2]	GSPT1 substrate protein remaining % [3]	WEE1 substrate protein remaining % [4]	IKZF2 substrate protein remaining % [5]	IKZF3 substrate protein remaining % [6]
O=C1CCN(N2Cc3cc(CN4CCC(c5ccoc5)CC4)ccc3C2=O)C(=O)N1 [GT-07375, 1-(5-((4-(furan-3-yl)piperidin-1-yl)methyl)-1-oxoisoindolin-2-yl)dihydropyrimidine-2,4(1H,3H)-dione]	B (80%< substrate protein remaining % ≤100%)	A (0% ≤ substrate protein remaining % ≤80%)	A (0% ≤ substrate protein remaining % ≤80%)	B (80%< substrate protein remaining % ≤100%)	B (80%< substrate protein remaining % ≤100%)	B (80%< substrate protein remaining % ≤100%)
O=C1CCN(N2Cc3cc(CN4C5CC4CN(C(=O)C4=C(c6ccc(F)cc6)CCCC4)C5)ccc3C2=O)C(=O)N1 [GT-07376, 1-(5-((3-(4′-fluoro-3,4,5,6-tetrahydro-[1,1′-biphenyl]-2-carbonyl)-3,6-diazabicyclo[3.1.1]heptan-6-yl)methyl)-1-oxoisoindolin-2-yl)dihydropyrimidine-2,4(1H,3H)-dione]	B (80%< substrate protein remaining % ≤100%)	B (80%< substrate protein remaining % ≤100%)	B (80%< substrate protein remaining % ≤100%)	A (0% ≤ substrate protein remaining % ≤80%)	B (80%< substrate protein remaining % ≤100%)	B (80%< substrate protein remaining % ≤100%)
O=C1CCN(N2C(=O)c3ccc(CN4C5CC4CN(C(=O)C4=C(c6ccc(F)cc6)CCCC4)C5)cc3C2=O)C(=O)N1 [GT-07377, 2-(2,4-dioxotetrahydropyrimidin-1(2H)-yl)-5-((3-(4′-fluoro-3,4,5,6-tetrahydro-[1,1′-biphenyl]-2-carbonyl)-3,6-diazabicyclo[3.1.1]heptan-6-yl)methyl)isoindoline-1,3-dione]	B (80%< substrate protein remaining % ≤100%)	A (0% ≤ substrate protein remaining % ≤80%)	A (0% ≤ substrate protein remaining % ≤80%)	A (0% ≤ substrate protein remaining % ≤80%)	A (0% ≤ substrate protein remaining % ≤80%)	B (80%< substrate protein remaining % ≤100%)
O=C1CCN(N2C(=O)c3ccc(CN4CCC(c5ccsc5)CC4)cc3C2=O)C(=O)N1 [GT-07420, 2-(2,4-dioxotetrahydropyrimidin-1(2H)-yl)-5-((4-(thiophen-3-yl)piperidin-1-yl)methyl)isoindoline-1,3-dione]	B (80%< substrate protein remaining % ≤100%)	A (0% ≤ substrate protein remaining % ≤80%)	A (0% ≤ substrate protein remaining % ≤80%)	B (80%< substrate protein remaining % ≤100%)	B (80%< substrate protein remaining % ≤100%)	B (80%< substrate protein remaining % ≤100%)
Cc1cc(C2CCN(Cc3ccc4c(c3)C(=O)N(N3CCC(=O)NC3=O)C4=O)CC2)cs1 [GT-07421, 2-(2,4-dioxotetrahydropyrimidin-1(2H)-yl)-5-((4-(5-methylthiophen-3-yl)piperidin-1-yl)methyl)isoindoline-1,3-dione]	B (80%< substrate protein remaining % ≤100%)	A (0% ≤ substrate protein remaining % ≤80%)	A (0% ≤ substrate protein remaining % ≤80%)	B (80%< substrate protein remaining % ≤100%)	B (80%< substrate protein remaining % ≤100%)	B (80%< substrate protein remaining % ≤100%)
O=C1CCN(N2C(=O)c3ccc(CN4CCC(c5ccoc5)CC4)cc3C2=O)C(=O)N1 [GT-07422, 2-(2,4-dioxotetrahydropyrimidin-1(2H)-yl)-5-((4-(furan-3-yl)piperidin-1-yl)methyl)isoindoline-1,3-dione]	B (80%< substrate protein remaining % ≤100%)	A (0% ≤ substrate protein remaining % ≤80%)	A (0% ≤ substrate protein remaining % ≤80%)	B (80%< substrate protein remaining % ≤100%)	B (80%< substrate protein remaining % ≤100%)	B (80%< substrate protein remaining % ≤100%)
Cc1cc(C2=CCN(Cc3ccc4c(c3)C(=O)N(N3CCC(=O)NC3=O)C4=O)CC2)cs1 [GT-07423, 2-(2,4-dioxotetrahydropyrimidin-1(2H)-yl)-5-((4-(5-methylthiophen-3-yl)-3,6-dihydropyridin-1(2H)-yl)methyl)isoindoline-1,3-dione]	B (80%< substrate protein remaining % ≤100%)	A (0% ≤ substrate protein remaining % ≤80%)	A (0% ≤ substrate protein remaining % ≤80%)	A (0% ≤ substrate protein remaining % ≤80%)	B (80%< substrate protein remaining % ≤100%)	A (0% ≤ substrate protein remaining % ≤80%)
O=C1CCN(N2C(=O)c3ccc(CN4CCC(c5cccs5)CC4)cc3C2=O)C(=O)N1 [GT-07424, 2-(2,4-dioxotetrahydropyrimidin-1(2H)-yl)-5-((4-(thiophen-2-yl)piperidin-1-yl)methyl)isoindoline-1,3-dione]	A (0% ≤ substrate protein remaining % ≤80%)	B (80%< substrate protein remaining % ≤100%)	A (0% ≤ substrate protein remaining % ≤80%)	A (0% ≤ substrate protein remaining % ≤80%)	B (80%< substrate protein remaining % ≤100%)	A (0% ≤ substrate protein remaining % ≤80%)
O=C1CCN(N2Cc3cc(CN4C[C@H]5C[C@@H]4CN5c4cccc(Cl)c4Cl)ccc3C2=O)C(=O)N1 [GT-07427, 1-(5-(((1R,4R)-5-(2,3-dichlorophenyl)-2,5-diazabicyclo[2.2.1]heptan-2-yl)methyl)-1-oxoisoindolin-2-yl)dihydropyrimidine-2,4(1H,3H)-dione]	A (0% ≤ substrate protein remaining % ≤80%)	A (0% ≤ substrate protein remaining % ≤80%)	A (0% ≤ substrate protein remaining % ≤80%)	A (0% ≤ substrate protein remaining % ≤80%)	B (80%< substrate protein remaining % ≤100%)	B (80%< substrate protein remaining % ≤100%)
O=C1CCN(N2Cc3cc(CN4CC5CCC4CN5c4cccc(Cl)c4Cl)ccc3C2=O)C(=O)N1 (stereo not drawn) [GT-07428, 1-(5-((5-(2,3-dichlorophenyl)-2,5-diazabicyclo[2.2.2]octan-2-yl)methyl)-1-oxoisoindolin-2-yl)dihydropyrimidine-2,4(1H,3H)-dione]	A (0% ≤ substrate protein remaining % ≤80%)	A (0% ≤ substrate protein remaining % ≤80%)	A (0% ≤ substrate protein remaining % ≤80%)	B (80%< substrate protein remaining % ≤100%)	B (80%< substrate protein remaining % ≤100%)	B (80%< substrate protein remaining % ≤100%)
O=C1CCN(N2Cc3cc(CN4CC5CCC(C4)N5c4cccc(Cl)c4Cl)ccc3C2=O)C(=O)N1 [GT-07429, 1-(5-((8-(2,3-dichlorophenyl)-3,8-diazabicyclo[3.2.1]octan-3-yl)methyl)-1-oxoisoindolin-2-yl)dihydropyrimidine-2,4(1H,3H)-dione]	A (0% ≤ substrate protein remaining % ≤80%)	B (80%< substrate protein remaining % ≤100%)	B (80%< substrate protein remaining % ≤100%)	B (80%< substrate protein remaining % ≤100%)	B (80%< substrate protein remaining % ≤100%)	B (80%< substrate protein remaining % ≤100%)
O=C1CCN(N2Cc3cc(CN4C5CCC4CN(c4cccc(Cl)c4Cl)C5)ccc3C2=O)C(=O)N1 [GT-07430, 1-(5-((3-(2,3-dichlorophenyl)-3,8-diazabicyclo[3.2.1]octan-8-yl)methyl)-1-oxoisoindolin-2-yl)dihydropyrimidine-2,4(1H,3H)-dione]	A (0% ≤ substrate protein remaining % ≤80%)	A (0% ≤ substrate protein remaining % ≤80%)	A (0% ≤ substrate protein remaining % ≤80%)	B (80%< substrate protein remaining % ≤100%)	B (80%< substrate protein remaining % ≤100%)	B (80%< substrate protein remaining % ≤100%)
